Where two headings read alike, the source gives them in different places. One block for each compound: values may come before it.
Experiments:
[1] = in vivo; parameters: species or system Male SD rats; settings: rat, plasma; for AUC at 8 h: 0-8 hr, read-out: AUC0^8 (Area under the plasma concentration time curve)
Experimental: In the same manner as Experiment Example 1 mentioned above, 960 mg of PEG-6000, 20 mg of lansoprazole and 20 mg of sodium oleate were evenly melted and dispersed. The resulting dispersion was filled in 200 mg portions into metallic rectal suppository containers for rats and cooled to provide composition for rectal administration for rats. In addition, using 960 mg of Witepsol W-35 (Dynamit Nobel), 20 mg of lansoprazole and 20 mg of sodium oleate, composition for rectal administration for rats in otherwise the same manner as above.
Male SD rats weighing 250-280 g (Japan Clea) were provided. The animals were allowed food and water ad libitum and, then, fasted for about 16 hours (water was available ad libitum). Using the rats fasted for about 16 hours, the composition for rectal administration prepared above were inserted into the anus and, to prevent expulsion of the drug, the perianal skin was clipped.
For control purposes, 80 mg of lansoprazole, 1.5 ml of PEG-400 and 9.5 ml of 0.5% aqueous solution of sodium hydrogen carbonate were admixed to prepare an injectable solution. This solution was injected, in a volume of 0.25 ml, into the femoral vein of each rat (intravenous dosing).
At 0.08, 0.17, 0.25, 0.5, 1.0, 2.0, 4.0 and 8.0 hours after administration,the blood was drawn from the caudal vein of rats using a blood sampling tube containing a small amount of heparin. Each blood sample was centrifuged (3000 rpm, 10 min.) to separate the plasma (0.1 ml) and lansoprazole in each plasma sample was assayed. The assay method was as follows. To 0.1 ml of plasma were added 0.5 ml of 0.5% aqueous solution of sodium hydrogen carbonate and 3 ml of chloroform and the mixture was shaken vigorously for about 5 minutes and centrifuged at 2500 rpm for about 5 minutes. The under layer (chloroform layer), 2 ml, was taken and the solvent chloform was evaporated off by blasting with nitrogen gas. The residue was redissolved in 0.2 ml of HPLC mobile phase and subjected to HPLC analysis (injection amount 50 μl) under the following conditions.
Column: YMC A-303 (5 μm), 4.6 mm in internal diameter and 25 cm in length (YMC).
Mobile phase: a mixture of water, acetonitrile and triethylamine (60:40:1) adjusted to pH 7.0 with phosphoric acid.
Detection: A UV spectrophotometer (exciting wavelength 285 nm)
Column temperature: Room temperature

[2] = Stability of lansoprazole composition for rectal administration: change in color on storage at 40° C. and 75% relative humidity (Experimental Example 2); type: physicochemical; settings: relative humidity 75%, conclusion from Table 2
Experimental: (§1) After each of them was melted by warming at 60° C., 20 mg of lansoprazole and a specified amount [See Table 1] of sodium oleate were admixed with the base to prepare a composition. Each composition was stored at room temperature (25° C.) and the change in color was evaluated by comparing it with the composition prior to storage.
Using different fatty acid salts, the stability of lansoprazole in compositions for rectal administration was evaluated by the same procedure as Experiment Example 1. EPG-4000 or Witepsol W-35 was used as the base and sodium oleate, sodium palmitate or sodium caprate was used as the fatty acid salt, each in the amount indicated in Table 2. In this stability test, the test compositions were stored at a temperature of 40° C. and a relative humidity of 75%.

[3] = Stability of lansoprazole composition for rectal administration: change in color on storage at room temperature (25° C.) (Experiment Example 1); type: physicochemical; settings: conclusion from Table 1
Experimental: Using PEG-4000 (Wako Pure Chemical Industries, Japan) or Witepsol W-35 (Dynamit Novel, Germany) as a base for rectal administration, the stability of lansoprazole in the composition was compared between the inclusion of sodium oleate and the exclusion of sodium oleate.
as §1

[4] = Rectal, Oleaginous base (Witepsol W-35) with sodium oleate
[5] = Rectal, Water-soluble base (PEG-6000) with sodium oleate

- AUC at 8 h [1, 4]: 1080 ng·h/mL
- concentration at 0.08 h [1, 4]: 90 ng/mL
- concentration at 0.17 h [1, 4]: 140 ng/mL
- concentration at 0.25 h [1, 4]: 210 ng/mL
- concentration at 0.5 h [1, 4]: 310 ng/mL
- concentration at 1 h [1, 4]: 360 ng/mL
- concentration at 2 h [1, 4]: 180 ng/mL
- concentration at 4 h [1, 4]: 90 ng/mL
- concentration at 8 h [1, 4]: 50 ng/mL
- AUC at 8 h [1, 5]: 890 ng·h/mL
- concentration at 0.08 h [1, 5]: 160 ng/mL
- concentration at 0.17 h [1, 5]: 240 ng/mL
- concentration at 0.25 h [1, 5]: 310 ng/mL
- concentration at 0.5 h [1, 5]: 420 ng/mL
- concentration at 1 h [1, 5]: 330 ng/mL
- concentration at 2 h [1, 5]: 110 ng/mL
- concentration at 4 h [1, 5]: 60 ng/mL
- concentration at 8 h [1, 5]: 30 ng/mL
- AUC at 8 h ([1]; iv): 3860 ng·h/mL
- concentration at 0.08 h ([1]; iv): 6960 ng/mL
- concentration at 0.17 h ([1]; iv): 5390 ng/mL
- concentration at 0.25 h ([1]; iv): 4830 ng/mL
- concentration at 0.5 h ([1]; iv): 3280 ng/mL
- concentration at 1 h ([1]; iv): 910 ng/mL
- concentration at 2 h ([1]; iv): 70 ng/mL
- concentration at 4 h ([1]; iv): 5 ng/mL
- concentration at 8 h ([1]; iv): 2 ng/mL
SMILES: Cc1c(OCC(F)(F)F)ccnc1C[S+]([O-])c1nc2ccccc2[nH]1 (stereo not shown) [lansoprazole, 2-[2-[3-methyl-4-(2,2,2-trifluoroethoxy)pyridyl]methylsulfinyl]benzimidazole]

SMILES: CCCCCCCCCC(=O)[O-].[Na+] [sodium caprate]
- contribution to the stability of the active drug [2]: contributed a great deal to the stability of the active drug

SMILES: CCCCCCCC/C=C\CCCCCCCC(=O)[O-].[Na+] [sodium oleate]
- contribution to the stability of the active drug [2]: contributed a great deal to the stability of the active drug
- stabilization of lansoprazole [3]: stabilized lansoprazole

SMILES: CCCCCCCCCCCCCCCC(=O)[O-].[Na+] [sodium palmitate]
- contribution to the stability of the active drug [2]: contributed a great deal to the stability of the active drug

Source: patent US5635520A, “Anti-ulcer compositions suitable for rectal administration” (Takeda Chemical Industries, Ltd., priority 1993, dated 1997)
